# Patent US20100240627A1, “COMPOSITION AND METHODS RELATING TO GLUCOCORTICOID RECEPTOR-ALPHA AND PEROXISOME PROLIFERATOR-ACTIVATED RECEPTORS” (Universiteit Gent, priority 2007, published 2010)
# Experiments:
# [1] = test system: TRAP5b; assay: Serum TRAP5b ELISA in DBA/1 mice; type: in vivo, mouse; details: DBA/1 mice serum, daily treatment 8 days
# Source text: (§1) Male 8- to 12-wk-old DBA/1 mice are purchased from Janvier and housed following institutional guidelines. All animal procedures are approved by the institutional animal care and ethics committee. […] The experiment is repeated with agonists for PPARα replaced by the respective agonists for PPARγ (rosiglitazone) or PPARβ/δ (L165041). At day 8, murine serum is collected and used for the determination of TRAP5b and osteocalcin levels. The Mouse TRAP™ Assay is purchased from Immunodiagnostic Systems Ltd. The Mouse Osteocalcin EIA kit is purchased from Biomedical Technologies, Inc. All assays are performed according to the manufacturer's guidelines.
# (§2) The experiment is repeated with agonists for PPARα replaced by the respective agonists for PPARγ (rosiglitazone) or PPARβ/δ(L165041). A TRAP5b ELISA assay is performed for the detection of differentiated osteoclasts.
# [2] = test system: ACO mRNA in mouse liver; assay: Liver ACO mRNA in treated mice; type: in vivo; details: DEX 10 mg/kg i.p., FF 200 mg/kg gavage, daily 5 days
# Source text: Female C57BL6J mice are used at 8 weeks. Mice are randomized to four groups (six mice/group) and matched for body weight. Animals are killed by cervical dislocation after which thymus and liver are recovered and weighed. Total RNA is extracted from liver as described below. ANOVA is used for all analyses, followed by Scheffe post-hoc tests for treated vs control comparisons. The level of significance for all statistical analyses is set at p<0.05.
# GILZ and ACO mRNA expression levels from the liver are quantified via QPCR and normalized for household gene expression. Results from triplicates are shown ±SD. Results are represented as relative expression fold, i.e. with the solvent-treated control value taken as 1.
# [3] = test system: calvarial cells; assay: Ex vivo osteoclastogenesis and osteoblast differentiation of calvarial cells; type: cell-based, mouse; details: pharmacological DEX concentrations
# Experimental: Glucocorticoid-induced osteoporosis (GIO) has been considered one of the most debilitating side-effects related to long-term GC usage (Berris, Repp et al. Curr Opin Endocrinol Diabetes Obes 14(6): 446-50). The effects of compositions and methods of the present invention on glucocorticoid-induced osteoporosis is determined by analysis of markers of osteoclastogenesis, including cathepsin K, M-CSF, RANKL and OPG. Since it is believed that an increase in bone resorption is worsened by inhibition of new bone formation, thereby contributing to the GC-mediated decrease in bone mineral density, the effect compositions and methods of the present invention on osteoblast differentiation is determined using calvarial cells isolated from 3-5 day old mice.
# Alkaline phosphatase staining and Q-PCR are performed for the detection of Collal, Alkp, Runx-2 and Bglap (osteocalcin) expression after 10 days of osteoblast differentiation. Alizarin Red staining is performed to determine extracellular calcium deposition after 20 days of osteoblast differentiation.
# Calvarial cells are isolated from 3-5 day old mice (SV 129 background). A piece of the tail is isolated for genotyping. The pups are decapitated with scissors in the laminar flow cabinet, skin and brain are removed and the calvaria transferred into eppendorf tubes containing 1 ml PBS+1% Pen/Strep. The tubes are put on ice until digestion. […]
# [4] = test system: osteocalcin; assay: Serum osteocalcin in DBA/1 mice; type: in vivo, mouse; details: daily treatment 8 days
# Source text: as §1, §2
# [5] = test system: GRE-driven gene transcription; assay: p(GRE)2-50-luc reporter in HepG2 cells; type: cell-based, human; details: HepG2 overexpressing PPARα (pSG5PPARα); 8 h
# Experimental: HepG2 and BWTG3 cells are transiently transfected using Lipofectamine according to the manufacturer's instructions, HEK293T cells using CaPO4. At day −1 40,000-50,000 cells/24-well are seeded. At day 0, medium is replaced by 360 μl of fresh normal medium with 10% serum to the cells. The DNA mix is prepared by dissolving (per 24-well) 400 ng of DNA in 20 μl of TE/CaCl2 solution. The DNA-containing mixture is added dropwise to 20 μl BS/Hepes mixture. All is mixed until a fine precipitate is visible. This precipitate is finally added onto the 360 μl medium. After 8 h, medium is replaced with fresh normal medium with 10% serum and inductions are performed the following day. […]
# Luc and β-gal assays are carried out according to instructions of the manufacturer (Promega). Luc activity, expressed in arbitrary light units, is corrected for the protein conc. in the sample by normalization to constitutive β-gal levels. β-gal levels are quantified with a chemiluminescent reporter assay Galacto-Light kit (TROPIX, Bedford, Mass.).
# HepG2 cells are transiently transfected with p(GRE)2-50-luc, and pSG5PPARα (black bars) or pSG5 (white bars). […] Promoter activities are expressed as relative induction factor, i.e., the ratio of expression levels of induced versus non-induced conditions.
# [6] = test system: TNF-induced IL-6 production in L929sA cells; assay: TNF-induced IL-6 production, murine IL-6 ELISA; type: cell-based; details: 1 h pre-incubation, TNF 200 IU/ml 24 h, DEX 0.01 μM, GW647 0.25-1 μM, WY 2-10 μM, FIG. 1
# Experimental: Murine IL-6 ELISA is performed using a kit from Biosource.
# Medium is collected to perform a murine IL-6 ELISA. Protein levels obtained in ng/ml are calculated as % of max TNF response. Results are shown ±SD. **P<0.01, ***P<0.001 in FIG. 1.
# [7] = test system: NF-κB-driven gene expression; assay: p(IL6κB)350hu.IL6P-luc reporter in transfected HEK293T cells; type: cell-based; details: TNF 2000 IU/ml 8 h
# Experimental: (§3) Cell lysates are assayed for luciferase activities and normalized for β-gal activities. A representative of three independent experiments is shown.
# [8] = test system: GRE-driven gene expression; assay: p(GRE)2-50-luc reporter in transfected HEK293T cells; type: cell-based; details: 8 h, DEX 1 or 0.1 μM
# Experimental: as §3
# [9] = test system: PDK-4 mRNA (PPARα target gene); assay: PDK-4 mRNA in primary hepatocytes of WT and PPARα KO mice; type: cell-based, mouse; details: 24 h, GW9578 500 nM, WY 10 μM
# Experimental: Mouse hepatocytes are isolated by collagenase perfusion from livers of wild type and PPARα KO (PPARα−/−) mice essentially using the collagenase method (18), with several modifications. Mouse livers are perfused with Hanks' balanced salt solution (HBSS, Sigma) at a rate of 5 ml/min via cave vein before addition of collagenase Type IV (0.025%, Sigma). Cell viability is assessed by a Trypan Blue exclusion test. […] After overnight incubation, cells are incubated in a fresh William's E medium supplemented with different compounds, DEX and/or PPARα agonists.
# [10] = target: T1, mouse PPARα (Mus musculus, UniProt P23204); details: cited from earlier work
# T1 sequence (P23204 1-468): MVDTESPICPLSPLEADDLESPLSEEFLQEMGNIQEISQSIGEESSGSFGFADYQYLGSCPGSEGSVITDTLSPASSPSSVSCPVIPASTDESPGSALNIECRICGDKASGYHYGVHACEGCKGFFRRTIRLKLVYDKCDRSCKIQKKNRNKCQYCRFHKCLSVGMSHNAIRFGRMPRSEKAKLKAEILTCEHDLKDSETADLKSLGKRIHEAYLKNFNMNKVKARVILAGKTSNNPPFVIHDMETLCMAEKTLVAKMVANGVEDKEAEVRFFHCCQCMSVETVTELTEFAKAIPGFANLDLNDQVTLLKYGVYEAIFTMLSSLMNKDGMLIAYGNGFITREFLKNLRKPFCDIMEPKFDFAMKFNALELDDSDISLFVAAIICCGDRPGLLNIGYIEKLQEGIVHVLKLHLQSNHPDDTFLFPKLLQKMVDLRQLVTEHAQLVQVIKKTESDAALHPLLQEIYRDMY
# [11] = test system: human placental alkaline phosphatase (hPAP) mRNA; assay: Semi-quantitative PCR of hPAP mRNA; type: cell-based; details: HepG2 and A549 cells, 8 h; DEX 1 μM, WY 10 μM; co-treatment compared to DEX alone
# Experimental: (§4) RNA extraction is performed as described before (12). RNA is isolated from cells by using TRIzol reagent (Invitrogen) according to the manufacturer's instructions. The reverse transcriptase reaction is done by using MLV enzyme (Promega) followed by a PCR reaction with Taq polymerase (Promega) on the obtained cDNA. cDNA is analyzed either by a semi-quantitative PCR using Taq polymerase (Promega) or by real-time PCR with a SYBR Green mastermix (Invitrogen). Primers for QPCR of mIL-6: fwd […] (SEQ ID No. 1) and rev […] (SEQ ID No. 2); for mGILZ: fwd […] (SEQ ID No. […]) and rev […] (SEQ ID No. 4); for hGILZ: fwd […] (SEQ ID No. 5) and rev […] (SEQ ID No. 6); for mG6Pase: fwd […] (SEQ ID No. 7) and rev […] (SEQ ID No. 8); for rMCP-1: fwd […] (SEQ ID No. 9) and rev […] (SEQ ID No. 10); for mMMP-9: […] (SEQ ID No. 11) and rev […] (SEQ ID No. 12). Primers for semi-QPCR of hPLAP: fwd […] (SEQ ID No. 13) and rev […] (SEQ ID No. 14).
# A549 or HepG2 cells are treated for eight hours, mRNA is isolated, reverse transcribed and the resulting cDNA is subjected to semi-quantitative PCR analysis with primers to detect GAPDH (loading control) or hPAP in the same sample. […] Treatment with WY alone has no effect on hPAP mRNA expression.
# [12] = test system: Glucocorticoid-induced Leucine Zipper (GILZ) mRNA; assay: QPCR of GILZ mRNA in HepG2 cells; type: cell-based, human; details: HepG2 (and A549) cells, 3 h; co-treatment compared to DEX alone
# Experimental: as §4
# HepG2 cells and FTO2B cells are incubated with the indicated agents for three hours. mRNA is isolated, reverse transcribed and the resulting cDNA is subjected to SYBR green QPCR with primers to detect G6Pase or Glucocorticoid-induced Leucine Zipper (GILZ). QPCR measurements are performed in triplicate. QPCR results, normalized to expression of household genes, are shown ±SD, in FIGS. 2B and 2C. […]
# [13] = test system: cathepsin K; assay: Cathepsin K expression in MG63b osteosarcoma cells; type: cell-based, human; details: 24 hour, DEX 10^−6M, WY 10 μM
# Experimental: Cell culture—Human osteosarcoma cells MG63b and Saos-2 are cultured in Dulbecco Modified Eagle's Medium (DMEM) and McCoy's 5a Medium respectively, supplemented with 10% fetal calf serum (FCS), 100 units/ml penicillin and 0.1 mg/ml streptomycin. RT-PCR—After the appropriate inductions RNA is isolated from the cells by means of the RNeasy mini kit (Qiagen) according to the manufacturer's instructions. The mRNA is reverse transcribed with the verso cDNA kit (ABgene). The obtained cDNA is amplified by a quantitative PCR reaction with iQ Custom SYBR Green Supermix (Biorad). Gene expression of the housekeeping gene hypoxanthine-guanine phosphoribosyltransferase (HPRT) is used for normalization.
compound,measurement,setting,value
"C[C@@H]1C[C@H]2[C@@H]3CCC4=CC(=O)C=C[C@]4(C)[C@@]3(F)[C@@H](O)C[C@]2(C)[C@@]1(O)C(=O)CO [DEX, dexamethasone]",TRAP5b levels,[1],upregulates TRAP5b levels after 8 days
same,ACO mRNA levels in liver,[2],no effect
same,osteoclastogenesis,[3],inhibit osteoclastogenesis
same,amount of osteocalcin in murine serum,[4],significantly lowers
"CC(C)(Sc1ccc(CCN(CCCCC2CCCCC2)C(=O)NC2CCCCC2)cc1)C(=O)O [GW647, 2-(4-(2-(1-Cyclohexanebutyl-3-cyclohexylureido)ethyl)phenylthio)-2-methylpropionic acid]",DEX-induced luciferase activity of p(GRE)2-50-luc,[5],further enhanced
same,TNF-induced IL-6 production,[6],inhibited TNF-induced IL-6 production in a dose-responsive manner
same,NF-κB-driven gene expression (luc),"[7]; HEK293T with pSVhGRα and pSG5PPARα, GW647 0.5 μM, FIG. 12A",inhibits NF-κB-driven gene expression
same,GRE-driven gene expression (luc),"[8]; HEK293T with pSVhGRα and pSG5PPARα, GW647 0.5 μM, FIG. 13A",able to antagonize GRE-driven gene expression
CCCCCCCN(CCc1ccc(SC(C)(C)C(=O)O)cc1)C(=O)Nc1ccc(F)cc1F [GW9578],PDK-4 mRNA levels,[9],significant increase in PDK-4 mRNA levels only in WT cells
same,EC50,[10],5 nM
CCCc1c(OCCCOc2ccc(OCC(=O)O)cc2)ccc(C(C)=O)c1O [L165041],NF-κB-driven gene expression (luc),"[7]; HEK293T with pSVhGRα and pSG5PPARδ, L165041, FIG. 12B",efficiently inhibit NF-κB-driven gene expression
same,GRE-driven gene expression (luc),"[8]; HEK293T with pSVhGRα and pSG5PPARδ, L165041 1 μM, FIG. 13B",able to antagonize the GRE-driven gene expression
O=S(=O)(c1ccccc1)N(CC(F)(F)F)c1ccc(C(O)(C(F)(F)F)C(F)(F)F)cc1 [T0901317],NF-κB-driven gene expression (luc),"[7]; HEK293T with pSVhGRα and LXR plasmid, T0901317 1 μM, FIG. 12C",efficiently inhibit NF-κB-driven gene expression
same,GRE-driven gene expression (luc),"[8]; HEK293T with pSVhGRα and pCMX-LXR, T0901317 1 μM, FIG. 13C",not able to antagonize GRE-driven gene expression
"Cc1cccc(Nc2cc(Cl)nc(SCC(=O)O)n2)c1C [WY, [[4-chloro-6-[(2,3-dimethylphenyl)amino]-2-pyrimidinyl]thio]-acetic acid]",PDK-4 mRNA levels,[9],significant increase in PDK-4 mRNA levels only in WT cells
same,DEX-induced luciferase activity of p(GRE)2-50-luc,[5],confirmed
same,hPAP mRNA expression,[11],no effect
same,GILZ mRNA expression,[12],no effect
same,TNF-induced IL-6 production,[6],inhibited TNF-induced IL-6 production in a dose-responsive manner
same,cathepsin K expression,[13],prevent or reverse the upregulation
